Here are results for 1 compound from patent EP0073394A1, “2-Arylazo-2-imidazolines, acyl derivatives of the same, process for their preparation and the use in the control of ectoparasites and/or endoparasites” (BAYER AG, priority 1981, dated 1983).

The subject of this test is Boophilus microplus, Biarra-Stamm. The test can be described thus: Tick test (Zeckentest): in vitro test for inhibition of egg laying after dipping adult engorged female ticks. The format is in vivo. The following applies: Rhipicephalus microplus, 480 h, resistant Biarra strain, 1 min dip, read after 20 days, read-out: 50 % Hemmung bei einer Wirkstoffkonzentration in ppm a.i. von. The text has this: Lösungsmittel: 35 Gewichtsteile Ethylenglykolmonomethylether 35 Gewichtsteile Nonylphenolpolyglykolether
Zwecks Herstellung einer geeigneten Formulierung vermischt man drei Gewichtsteile Wirkstoff mit sieben Teilen des oben angegebenen Lösungsmittel-Emulgator-Gemisches und verdünnt das so erhaltene Emulsionskonzentrat mit Wasser auf die jeweils gewünschte Konzentration.
In diese Wirkstoffzubereitungen werden adulte, vollgesogene Zeckenweibchen der Art Boophilus microplus (resistent) eine Minute lang getaucht. Nach dem Tauchen von je 10 weiblichen Exemplaren überführt man diese in Petrischalen, deren Boden mit einer entsprechend großen Filterscheibe belegt ist.
Nach 20 Tagen wird die Wirksamkeit der Wirkstoffzubereitung bestimmt durch Ermittlung der Hemmung der Eiablage gegenüber unbehandelten Kontrollzecken. Die Wirkung drückt man in Prozent aus, wobei 100 % bedeutet, daß keine Eier mehr abgelegt wurden und 0 % besagt, daß die Zecken Eier in normaler Menge ablegten.
Untersuchter Wirkstoff, geprüfte Konzentrationen, getestete Parasiten und erhaltene Befunde gehen aus der folgenden Tabelle hervor.

Regarding `Cc1cc(Cl)ccc1NC(=S)N(C)C` [Chloromethiuron], the IC50 is more than 5000 µg/mL.
